Experimental data taken from patent US7754741B2, “Pyridine derivatives as fungicidal compounds” (Bayer Cropscience S.A., priority 2003, dated 2010).

How the values were obtained:
Conditions in all cases: 330 ppm; comparison compounds of WO 01/11965
Alternaria brassicae = assay: In vivo test on Alternaria brassicae (leaf spot of crucifers)
Experimental: In Vivo Test on Alternaria brassicae (Leaf Spot of crucifers)
(§1) The active ingredient tested is prepared by potter homogenisation in a concentrated suspension type formulation at 100 g/l. This suspension is then diluted with water to obtain the desired active material concentration.
Radish plants (Pernot variety) in starter cups, sown on a 50/50 peat soil-pozzolana substrate and grown at 18-20° C., are treated at the cotyledon stage by spraying with the aqueous suspension described above.
(§2) Plants, used as controls, are treated with an aqueous solution not containing the active material.
After 24 hours, the plants are contaminated by spraying them with an aqueous suspension of Alternaria brassicae spores (40,000 spores per cm^3). The spores are collected from a 12-13-day-old culture.
The contaminated radish plants are incubated for 6-7 days at about 18° C., under a humid atmosphere.
Grading is carried out 6 to 7 days after the contamination, in comparison with the control plants.

Botrytis cinerea = assay: In vivo test on Botrytis cinerea (cucumber grey mould)
Experimental: In Vivo Test on Botrytis cinerea (Cucumber Grey Mould)
as §1
(§3) Cucumber plants (Marketer variety) in starter cups, sown on a 50/50 peat soil-pozzolana substrate and grown at 18-20° C., are treated at the cotyledon Z11 stage by spraying with the aqueous suspension described above. Plants, used as controls, are treated with an aqueous solution not containing the active material.
After 24 hours, the plants are contaminated by depositing drops of an aqueous suspension of Botrytis cinerea spores (150,000 spores per ml) on upper surface of the leaves. The spores are collected from a 15-day-old culture and are suspended in a nutrient solution composed of: • 20 g/L of gelatin • 50 g/L of cane sugar • 2 g/L of NH4NO3 • 1 g/L of KH2PO4
The contaminated cucumber plants are settled for 5/7 days in a climatic room at 15-11° C. (day/night) and at 80% relative humidity.
Grading is carried out 5/7 days after the contamination, in comparison with the control plants. Under these conditions, good (at least 50%) to total protection is observed at a dose of 330 ppm with the following compounds :B-7, B-8, B-13, B-14, C-3, C-12, C-13, C-14, C-15, C-16, D-4, D-5, E-4, H-1, H-2, H-4, H-7, H-9, H-22, J-1, J-2, J-3, J-19, J-31, J-32, J-33, J-34, J-35, J-37, J-39, J-43, J-44, R-1, R-10, R-23, R-24, R-26, R-31, V-1, V-8.

Peronospora brassicae = assay: In vivo test on Peronospora brassicae (cabbage downy mildew)
Experimental: In Vivo Test on Peronospora brassicae (Cabbage Downy Mildew)
as §1
Cabbage plants (Eminence variety) in starter cups, sown on a 50/50 peat soil-pozzolana substrate and grown at 18-20° C., are treated at the cotyledon stage by spraying with the aqueous suspension described above.
as §2
After 24 hours, the plants are contaminated by spraying them with an aqueous suspension of Peronospora brassicae spores (50,000 spores per ml). The spores are collected from infected plant.
The contaminated cabbage plants are incubated for 5 days at 20° C., under a humid atmosphere.
Grading is carried out 5 days after the contamination, in comparison with the control plants.
Under these conditions, good (at least 50%) to total protection is observed at a dose of 330 ppm with the following compounds :B-6,B-7, J-46, J-59.

Pyrenophora teres = assay: In vivo test on Pyrenophora teres (barley net blotch)
Experimental: In Vivo Test on Pyrenophora teres (Barley Net Blotch)
as §1
as §3, with “Barley” for “Cucumber”, “(Express” for “(Marketer”, “12°” for “18-20°”, “1-leaf” for “cotyledon Z11”, “stage (10 cm tall)” for “stage”
After 24 hours, the plants are contaminated by spraying them with an aqueous suspension of Pyrenophora teres spores (12,000 spores per ml). The spores are collected from a 12-day-old culture The contaminated barley plants are incubated for 24 hours at about 20° C. and at 100% relative humidity, and then for 12 days at 80% relative humidity.

O=C(Cc1cccs1)NCc1ncc(C(F)(F)F)cc1Cl [compound 101, N-{[3-chloro-5-(trifluoromethyl)-2-pyridinyl]-methyl}-5-thienylacetamide, reference compound]
efficacy against Alternaria brassicae (Alternaria brassicae): poor efficacy
efficacy against Botrytis cinerea (Botrytis cinerea): no efficacy
efficacy against Peronospora parasitica (Peronospora brassicae): no efficacy

CCNC(=O)C(Cc1ncc(C(F)(F)F)cc1Cl)NC(=O)c1cccc([N+](=O)[O-])c1 (stereo not drawn) [compound 307, N-{1-ethylcarbamoyl-2-[3-chloro-5-(trifluoromethyl)-2-pyridinyl]ethyl}-3-nitrobenzamide, reference compound]
efficacy against Alternaria brassicae (Alternaria brassicae): poor efficacy
efficacy against Botrytis cinerea (Botrytis cinerea): no efficacy
efficacy against Pyrenophora teres (Pyrenophora teres): poor efficacy
efficacy against Peronospora parasitica (Peronospora brassicae): no efficacy

CCNC(=O)C(Cc1ncc(C(F)(F)F)cc1Cl)NC(=O)c1ccccc1Br (stereo not drawn) [compound 310, N-{1-ethylcarbamoyl-2-[3-chloro-5-(trifluoromethyl)-2-pyridinyl]ethyl}-2-bromobenzamide, reference compound]
efficacy against Alternaria brassicae (Alternaria brassicae): poor efficacy
efficacy against Botrytis cinerea (Botrytis cinerea): no efficacy
efficacy against Pyrenophora teres (Pyrenophora teres): poor efficacy
efficacy against Peronospora parasitica (Peronospora brassicae): no efficacy

CNC(=O)C(Cc1ncc(C(F)(F)F)cc1Cl)NC(=O)c1ccc(-c2ccccc2)cc1 (stereo not drawn) [compound 316, N-{1-methylcarbamoyl-2-[3-chloro-5-(trifluoromethyl)-2-pyridinyl]ethyl}-4-phenylbenzamide, reference compound]
efficacy against Alternaria brassicae (Alternaria brassicae): poor efficacy
efficacy against Botrytis cinerea (Botrytis cinerea): no efficacy
efficacy against Pyrenophora teres (Pyrenophora teres): poor efficacy
efficacy against Peronospora parasitica (Peronospora brassicae): no efficacy
